Among the data in patent US8552002B2 (Novartis AG, priority 2004, dated 2013) are inhibition values, retold here.

What all share (assay type): biochemical
One experiment addresses T1, KDR (Homo sapiens, UniProt P35968).
T1 construct: expressed in transfected cells; host or cells: CHO cells
Kind of experiment: Inhibitory activity against KDR (VEGF-R2), in vitro data of Examples 170 and 207. The settings on record: 10 μM, read-out: KDR inhibition at 10 μM. The method, boiled down:
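KDR tyrosine phosphorylation detected by luminescence after overnight 4° C capture of 20 μg lysate protein with PY20:AP antibody. Lysates came from cells given compound for 2 h at 37° C, then final 20 ng/ml VEGF for 5 min; compound-free medium as control.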

In another experiment the target is T2, FGFR3 (K650E) (Homo sapiens, UniProt P22607, K650E).
T2 construct: amino acids 411-806 of the cytoplasmic domain of human FGFR-3, N-terminally fused to GST; made in house; host or cells: Sf9 insect cells (baculovirus)
T2 sequence (P22607 411-806 K650E): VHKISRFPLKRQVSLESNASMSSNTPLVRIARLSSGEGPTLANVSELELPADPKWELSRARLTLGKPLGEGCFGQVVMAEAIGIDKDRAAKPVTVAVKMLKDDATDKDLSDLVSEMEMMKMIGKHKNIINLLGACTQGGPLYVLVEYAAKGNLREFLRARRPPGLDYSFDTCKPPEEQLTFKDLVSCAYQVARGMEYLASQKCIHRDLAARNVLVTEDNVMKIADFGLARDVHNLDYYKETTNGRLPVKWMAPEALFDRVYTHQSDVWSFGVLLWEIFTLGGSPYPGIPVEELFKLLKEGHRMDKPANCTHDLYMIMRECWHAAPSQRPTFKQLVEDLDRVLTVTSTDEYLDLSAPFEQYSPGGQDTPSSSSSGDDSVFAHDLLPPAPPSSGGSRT
The experiment in a line: Recombinant GST-FGFR-3-K650E tyrosine kinase assay (33P into poly(Glu,Tyr)). The note with it: 10 μM.

A further experiment concerns the target T3, Tek (Homo sapiens, UniProt Q02763).
T3 construct: amino acids 773-1124 of the cytoplasmic kinase domain of human Tek, N-terminally fused to GST; made in house; host or cells: Sf9 insect cells (baculovirus)
Kind of experiment: Recombinant GST-Tek (Tie-2) tyrosine kinase assay (33P into poly(Glu,Tyr)). The settings on record: Examples 1 to 169. An outline of the steps:
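GST-fused human Tek kinase domain (aa 773-1124), baculovirus-expressed, 150 ng per reaction; 10 μg/mL poly(Glu,Tyr) 4:1, 4.0 μM [γ-33P]ATP, 3 mM MnCl2/3 mM MgCl2, pH 7.5, 30 min at ambient temperature. 33P uptake read on PVDF filters; IC50 by linear regression from four concentrations in duplicate.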

The next experiment deals with c-Abl (Homo sapiens, UniProt P00519). The experiment in a line: Inhibitory activity against c-Abl (Example 207). The settings on record: Examples 171 to 206.
c-Abl, sequence (P00519 whole entry): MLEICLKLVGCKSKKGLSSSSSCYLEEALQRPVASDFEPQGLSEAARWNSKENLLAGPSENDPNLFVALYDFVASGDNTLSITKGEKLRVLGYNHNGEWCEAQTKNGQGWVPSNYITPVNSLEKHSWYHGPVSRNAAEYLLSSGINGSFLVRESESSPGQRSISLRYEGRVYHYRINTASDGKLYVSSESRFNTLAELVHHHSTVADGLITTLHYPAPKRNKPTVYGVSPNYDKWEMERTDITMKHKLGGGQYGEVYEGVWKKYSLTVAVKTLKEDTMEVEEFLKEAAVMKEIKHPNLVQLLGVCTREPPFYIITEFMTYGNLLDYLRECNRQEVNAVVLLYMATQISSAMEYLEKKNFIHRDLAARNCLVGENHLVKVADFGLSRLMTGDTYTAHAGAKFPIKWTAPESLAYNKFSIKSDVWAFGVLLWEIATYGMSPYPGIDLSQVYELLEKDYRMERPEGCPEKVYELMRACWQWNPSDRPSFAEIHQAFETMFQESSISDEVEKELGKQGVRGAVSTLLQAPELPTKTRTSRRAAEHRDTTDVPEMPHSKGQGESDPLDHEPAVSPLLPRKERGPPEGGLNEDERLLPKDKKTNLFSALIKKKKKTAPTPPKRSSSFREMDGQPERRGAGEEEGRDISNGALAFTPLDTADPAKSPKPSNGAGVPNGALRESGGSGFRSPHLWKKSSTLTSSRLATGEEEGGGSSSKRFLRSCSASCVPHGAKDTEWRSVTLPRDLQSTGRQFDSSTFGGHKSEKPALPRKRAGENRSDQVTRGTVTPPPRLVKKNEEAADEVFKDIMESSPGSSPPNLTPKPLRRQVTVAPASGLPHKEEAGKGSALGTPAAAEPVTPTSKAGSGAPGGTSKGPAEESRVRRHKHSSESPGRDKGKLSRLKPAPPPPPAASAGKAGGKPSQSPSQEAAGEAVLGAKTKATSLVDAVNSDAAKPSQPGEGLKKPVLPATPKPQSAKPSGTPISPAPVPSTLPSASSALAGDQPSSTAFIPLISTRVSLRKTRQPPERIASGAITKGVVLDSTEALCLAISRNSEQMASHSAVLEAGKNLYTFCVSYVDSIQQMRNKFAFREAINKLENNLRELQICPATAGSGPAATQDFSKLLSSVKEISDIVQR
[1] abbreviates: Examples 1 to 169, read-out: FGFR3 (K650E) inhibition at 10 μM.
The mark [2] stands for this setting: Examples 171 to 206, read-out: FGFR3 inhibition at 10 μM.

Structures are written as SMILES. Where two headings read alike, the source gives them in different places.

T3 sequence (Q02763 773-1124): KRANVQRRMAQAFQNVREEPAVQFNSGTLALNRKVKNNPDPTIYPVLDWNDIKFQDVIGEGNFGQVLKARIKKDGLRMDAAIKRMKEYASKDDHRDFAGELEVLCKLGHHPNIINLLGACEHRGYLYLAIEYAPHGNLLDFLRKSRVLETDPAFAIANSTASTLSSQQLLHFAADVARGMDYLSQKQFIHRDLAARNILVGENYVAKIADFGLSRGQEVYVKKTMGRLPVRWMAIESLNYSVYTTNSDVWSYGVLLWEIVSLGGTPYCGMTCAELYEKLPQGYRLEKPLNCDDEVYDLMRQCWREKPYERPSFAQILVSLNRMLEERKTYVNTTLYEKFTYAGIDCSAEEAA
T1 sequence (P35968 20-1356): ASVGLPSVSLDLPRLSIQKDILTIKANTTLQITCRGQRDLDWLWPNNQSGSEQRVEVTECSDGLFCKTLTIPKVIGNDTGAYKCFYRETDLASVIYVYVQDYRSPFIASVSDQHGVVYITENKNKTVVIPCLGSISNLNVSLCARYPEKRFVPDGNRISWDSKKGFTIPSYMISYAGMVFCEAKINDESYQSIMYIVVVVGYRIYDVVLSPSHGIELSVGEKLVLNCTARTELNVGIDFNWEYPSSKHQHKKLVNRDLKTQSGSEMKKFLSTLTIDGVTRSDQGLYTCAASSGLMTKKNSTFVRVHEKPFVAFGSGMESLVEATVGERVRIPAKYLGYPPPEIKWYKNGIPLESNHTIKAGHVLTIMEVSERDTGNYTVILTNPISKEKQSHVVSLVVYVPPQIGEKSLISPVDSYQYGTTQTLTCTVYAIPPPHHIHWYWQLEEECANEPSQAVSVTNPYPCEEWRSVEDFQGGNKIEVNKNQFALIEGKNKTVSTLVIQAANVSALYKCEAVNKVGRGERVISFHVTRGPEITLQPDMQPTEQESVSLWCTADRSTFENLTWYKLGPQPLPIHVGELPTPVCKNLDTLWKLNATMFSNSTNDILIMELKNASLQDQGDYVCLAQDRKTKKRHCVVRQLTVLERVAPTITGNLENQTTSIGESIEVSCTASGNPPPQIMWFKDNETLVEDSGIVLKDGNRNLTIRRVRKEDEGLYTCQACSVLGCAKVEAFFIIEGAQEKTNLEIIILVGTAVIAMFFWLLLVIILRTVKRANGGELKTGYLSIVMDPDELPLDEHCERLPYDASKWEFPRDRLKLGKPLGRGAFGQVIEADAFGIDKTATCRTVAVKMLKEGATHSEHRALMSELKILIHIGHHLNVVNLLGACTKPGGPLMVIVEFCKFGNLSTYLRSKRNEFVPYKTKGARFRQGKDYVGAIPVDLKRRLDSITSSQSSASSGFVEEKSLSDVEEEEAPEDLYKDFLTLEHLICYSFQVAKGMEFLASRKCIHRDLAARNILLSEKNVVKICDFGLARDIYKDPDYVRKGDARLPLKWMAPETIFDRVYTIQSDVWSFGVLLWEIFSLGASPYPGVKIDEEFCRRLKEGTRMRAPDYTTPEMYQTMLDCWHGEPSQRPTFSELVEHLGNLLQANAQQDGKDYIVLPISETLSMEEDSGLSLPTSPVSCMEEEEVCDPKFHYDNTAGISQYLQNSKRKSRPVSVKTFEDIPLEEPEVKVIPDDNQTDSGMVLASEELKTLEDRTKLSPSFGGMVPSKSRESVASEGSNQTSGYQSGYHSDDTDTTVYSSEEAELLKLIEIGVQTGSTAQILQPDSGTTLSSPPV

Take `CCN(C(=O)Nc1c(Cl)c(OC)cc(OC)c1Cl)c1cc(Nc2ccc(OCCN3CCCC3)cc2)ncn1` [Example 156, 3-(2,6-Dichloro-3,5-dimethoxy-phenyl)-1-ethyl-1-{6-[4-(2-pyrrolidin-1-yl-ethoxy)-phenylamino]-pyrimidin-4-yl}-urea]: the inhibition at 10 µM on KDR (Examples 1 to 169) was 67 to 100%; at FGFR3 (K650E) (setting [1]), 27 to 100%; at Tek, 12 to 100%.

On to `COc1cc(OC)c(Cl)c(NC(=O)Nc2cc(Nc3cccc(CN(C)C)c3)ncn2)c1Cl` [Example 157, 1-(2,6-Dichloro-3,5-dimethoxy-phenyl)-3-[6-(3-dimethylaminomethyl-phenylamino)-pyrimidin-4-yl]-urea], for which the inhibition at 10 µM at KDR (Examples 1 to 169) was in the range of 67 to 100%; on FGFR3 (K650E) (setting [1]), 27 to 100%; at Tek, 12 to 100%.

Turning to `COc1cc(OC)c(Cl)c(NC(=O)Nc2cc(Nc3ccc(OCCN4CCN(C)CC4)cc3)ncn2)c1Cl` [Example 158, 1-(2,6-Dichloro-3,5-dimethoxy-phenyl)-3-(6-{4-[2-(4-methyl-piperazin-1-yl)-ethoxy]-phenylamino}-pyrimidin-4-yl)-urea], the inhibition at 10 µM on KDR (Examples 1 to 169) fell in the range of 67 to 100%; on FGFR3 (K650E) (setting [1]), 27 to 100%; on Tek, 12 to 100%.

Consider `COc1cc(OC)c(Cl)c(NC(=O)Nc2cc(Nc3ccc(CN(C)C)c(C(F)(F)F)c3)ncn2)c1Cl` [Example 159, 1-(2,6-Dichloro-3,5-dimethoxy-phenyl)-3-[6-(4-dimethylaminomethyl-3-trifluoromethyl-phenylamino)-pyrimidin-4-yl]-urea], for which the inhibition at 10 µM on KDR (Examples 1 to 169) fell in the range of 67 to 100%; on FGFR3 (K650E) (setting [1]), 27 to 100%; on Tek it was 12 to 100%.

Regarding `CCN1CCN(c2ccc(Nc3cc(NC(=O)Nc4c(Cl)c(OC)cc(OC)c4Cl)ncn3)cc2)CC1` [Example 160, 1-(2,6-Dichloro-3,5-dimethoxy-phenyl)-3-{6-[4-(4-ethyl-piperazin-1-yl)-phenylamino]-pyrimidin-4-yl}-urea], the figures for the inhibition at 10 µM on KDR (Examples 1 to 169), at FGFR3 (K650E) (setting [1]) and at Tek were 67 to 100%, 27 to 100% and 12 to 100%, respectively.

Turning to `COc1cc(OC)c(Cl)c(NC(=O)N(C)c2cc(Nc3cccc(CN4CCN(C(C)C)CC4)c3)ncn2)c1Cl` [Example 161, 3-(2,6-Dichloro-3,5-dimethoxy-phenyl)-1-{6-[3-(4-isopropyl-piperazin-1-ylmethyl)-phenylamino]-pyrimidin-4-yl}-1-methyl-urea], the inhibition at 10 µM is 67 to 100% on KDR (Examples 1 to 169), 27 to 100% at FGFR3 (K650E) (setting [1]) and 12 to 100% at Tek.

Take `COc1cc(OC)c(Cl)c(NC(=O)N(C)c2cc(Nc3cccc(CN(C)CCN(C)C)c3)ncn2)c1Cl` [Example 162, 3-(2,6-Dichloro-3,5-dimethoxy-phenyl)-1-[6-(3-{[(2-dimethylamino-ethyl)-methyl-amino]-methyl}-phenylamino)-pyrimidin-4-yl]-1-methyl-urea]: the inhibition at 10 µM at KDR (Examples 1 to 169) was in the range of 67 to 100%; at FGFR3 (K650E) (setting [1]), 27 to 100%; on Tek, 12 to 100%.

For the compound `COc1cc(OC)c(Cl)c(NC(=O)N(C)c2cc(Nc3ccc(N4CCN(C(C)C)CC4)cc3)ncn2)c1Cl` [Example 163, 3-(2,6-Dichloro-3,5-dimethoxy-phenyl)-1-{6-[4-(4-isopropyl-piperazin-1-yl)-phenylamino]-pyrimidin-4-yl}-1-methyl-urea], the inhibition at 10 µM on KDR (Examples 1 to 169) was in the range of 67 to 100%; at FGFR3 (K650E) (setting [1]), 27 to 100%; at Tek, 12 to 100%.

In the case of `COc1cc(OC)c(Cl)c(NC(=O)N(C)c2cc(Nc3ccc(OC4CCN(C)CC4)cc3)ncn2)c1Cl` [Example 165, 3-(2,6-Dichloro-3,5-dimethoxy-phenyl)-1-methyl-{6-[4-(1-methyl-piperidin-4-yloxy)-phenylamino]-pyrimidin-4-yl}-urea], the inhibition at 10 µM on KDR (Examples 1 to 169) lay in the range of 67 to 100%; on FGFR3 (K650E) (setting [1]) it was 27 to 100%; at Tek it was 12 to 100%.

On to `CCN(C(=O)Nc1c(Cl)c(OC)cc(OC)c1Cl)c1cc(Nc2ccc(OC3CCN(C)CC3)cc2)ncn1` [Example 166, 3-(2,6-Dichloro-3,5-dimethoxy-phenyl)-1-ethyl-{6-[4-(1-methyl-piperidin-4-yloxy)-phenylamino]-pyrimidin-4-yl}-urea], for which the inhibition at 10 µM fell in the range of 67 to 100% at KDR (Examples 1 to 169), 27 to 100% at FGFR3 (K650E) (setting [1]) and 12 to 100% at Tek.

`COc1cc(OC)c(Cl)c(NC(=O)N(C)c2cc(Nc3ccc(CN(C)C)c(C(F)(F)F)c3)ncn2)c1Cl` [Example 167, 3-(2,6-Dichloro-3,5-dimethoxy-phenyl)-1-[6-(4-dimethylaminomethyl-3-trifluoromethyl-phenylamino)-pyrimidin-4-yl]-1-methyl-urea]: the inhibition at 10 µM lay in the range of 67 to 100% on KDR (Examples 1 to 169), 27 to 100% at FGFR3 (K650E) (setting [1]) and 12 to 100% at Tek.

For `CCN1CCN(Cc2ccc(Nc3cc(NC(=O)Nc4c(Cl)c(OC)cc(OC)c4Cl)ncn3)cc2C(F)(F)F)CC1` [Example 168, 1-(2,6-Dichloro-3,5-dimethoxy-phenyl)-3-{6-[4-(4-ethyl-piperazin-1-ylmethyl)-3-trifluoromethyl-phenylamino]-pyrimidin-4-yl}-urea], the inhibition at 10 µM at KDR (Examples 1 to 169) lay within 67 to 100%; at FGFR3 (K650E) (setting [1]), 27 to 100%; on Tek it was 12 to 100%.

As to `CCN1CCN(Cc2ccc(Nc3cc(N(C)C(=O)Nc4c(Cl)c(OC)cc(OC)c4Cl)ncn3)cc2C(F)(F)F)CC1` [Example 169, 3-(2,6-Dichloro-3,5-dimethoxy-phenyl)-1-{6-[4-(4-ethyl-piperazin-1-ylmethyl)-3-trifluoromethyl-phenylamino]-pyrimidin-4-yl}-1-methyl-urea], the inhibition at 10 µM on KDR (Examples 1 to 169) was 67 to 100%; at FGFR3 (K650E) (setting [1]), 27 to 100%; at Tek, 12 to 100%.

With `CNc1cc(NC(=O)Nc2cc(NC(=O)c3cccc(C(F)(F)F)c3)ccc2C)ncn1` [Example 172, N-{4-Methyl-3-[3-(6-methylamino-pyrimidin-4-yl)-ureido]-phenyl}-3-trifluoromethyl-benzamide], the inhibition at 10 µM at KDR (Examples 171 to 206) was in the range of 87 to 100%; on FGFR3 (K650E) (setting [2]), 56 to 98%; at c-Abl it was 79 to 100%.

With `Cc1ccc(NC(=O)c2cccc(C(F)(F)F)c2)cc1NC(=O)Nc1cc(Nc2ccccc2)ncn1` [Example 173, N-{4-Methyl-3-[3-(6-phenylamino-pyrimidin-4-yl)-ureido]-phenyl}-3-trifluoromethyl-benzamide], the results for the inhibition at 10 µM on KDR (Examples 171 to 206), at FGFR3 (K650E) (setting [2]) and on c-Abl were 87 to 100%, 56 to 98% and 79 to 100%, respectively.

As to `Cc1ccc(NC(=O)c2cccc(C(F)(F)F)c2)cc1NC(=O)Nc1cc(Nc2ccc(N3CCN(C)CC3)cc2)ncn1` [Example 174, N-[4-Methyl-3-(3-{6-[4-(4-methyl-piperazin-1-yl)-phenylamino]-pyrimidin-4-yl}-ureido)-phenyl]-3-trifluoromethyl-benzamide], the results for the inhibition at 10 µM at KDR (Examples 171 to 206), on FGFR3 (K650E) (setting [2]) and against c-Abl were 87 to 100%, 56 to 98% and 79 to 100%, respectively.

On to `Cc1ccc(NC(=O)c2cccc(C(F)(F)F)c2)cc1NC(=O)Nc1cc(Nc2cccc(N3CCN(C)CC3)c2)ncn1` [Example 175, N-[4-Methyl-3-(3-{6-[3-(4-methyl-piperazin-1-yl)-phenylamino]-pyrimidin-4-yl}-ureido)-phenyl]-3-trifluoromethyl-benzamide], for which the inhibition at 10 µM at KDR (Examples 171 to 206) was 87 to 100%; on FGFR3 (K650E) (setting [2]), 56 to 98%; on c-Abl, 79 to 100%.

As for `CCN(CC)CCOc1ccc(Nc2cc(NC(=O)Nc3cc(NC(=O)c4cccc(C(F)(F)F)c4)ccc3C)ncn2)cc1` [Example 176, N-[3-(3-{6-[4-(2-Diethylamino-ethoxy)-phenylamino]-pyrimidin-4-yl}-ureido)-4-methyl-phenyl]-3-trifluoromethyl-benzamide], the inhibition at 10 µM at KDR (Examples 171 to 206) was in the range of 87 to 100%; on FGFR3 (K650E) (setting [2]), 56 to 98%; at c-Abl it was 79 to 100%.

`Cc1ccc(NC(=O)c2cccc(C(F)(F)F)c2)cc1NC(=O)Nc1cc(Nc2ccc(OCCCN(C)C)cc2)ncn1` [Example 177, N-[3-(3-{6-[4-(3-Dimethylamino-propoxy)-phenylamino]-pyrimidin-4-yl}-ureido)-4-methyl-phenyl]-3-trifluoromethyl-benzamide]: the inhibition at 10 µM was in the range of 87 to 100% at KDR (Examples 171 to 206), 56 to 98% on FGFR3 (K650E) (setting [2]) and 79 to 100% against c-Abl.

Regarding `Cc1ccc(NC(=O)c2cccc(C(F)(F)F)c2)cc1NC(=O)Nc1cc(Nc2cccc(OCCN(C)C)c2)ncn1` [Example 178, N-[3-(3-{6-[3-(2-Dimethylamino-ethoxy)-phenylamino]-pyrimidin-4-yl}-ureido)-4-methyl-phenyl]-3-trifluoromethyl-benzamide], the figures for the inhibition at 10 µM at KDR (Examples 171 to 206), on FGFR3 (K650E) (setting [2]) and against c-Abl were 87 to 100%, 56 to 98% and 79 to 100%, respectively.

A word on the inhibition: it is the change of the read-out against control, counted positive when it falls.
